In US20060258598A1, “Alpha-keto carbonyl calpain inhibitors” (priority 2003, published 2006):

Key:
20S Proteasome = target: T1, 20S Proteasome (Oryctolagus cuniculus, UniProt G1T4Q9); test: 20S Proteasome assay; type: biochemical, Rabbit; conditions: substrate Suc-Leu-Leu-Val-Tyr-AMC; read-out: 20S Prot IC50
T1 sequence (G1T4Q9 1-263): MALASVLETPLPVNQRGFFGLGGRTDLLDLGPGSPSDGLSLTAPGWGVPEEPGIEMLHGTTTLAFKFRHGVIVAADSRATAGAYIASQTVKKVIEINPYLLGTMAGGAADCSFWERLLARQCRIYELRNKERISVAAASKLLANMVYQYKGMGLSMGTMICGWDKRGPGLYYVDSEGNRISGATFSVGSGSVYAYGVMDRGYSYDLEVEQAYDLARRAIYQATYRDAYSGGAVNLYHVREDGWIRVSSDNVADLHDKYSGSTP
Description: 25 μl of a reaction buffer containing 400 μM of the fluorogenic substrate Suc-Leu-Leu-Val-Tyr-AMC (Bachem) are dispensed per well of a white microtiter plate. Test compounds dissolved in 0.5 μl DMSO are added. To start the reaction; 25 μl of reaction buffer containing 35 ng of enzyme (20S Proteasome, Rabbit, Calbiochem) are added. The increase in fluorescence (excitation at 360 nm; emission at 440 nm) is measured over 30 min at 30° C. at 30″. The IC50's are then determined from the slopes.

[1] = tested on: Primary fibroblasts from donors with Friedreich Ataxia (FRDA); test: BSO assay (cell viability under BSO-induced oxidative stress); type: cell-based, human; conditions: Homo sapiens, Fibroblast, 24 h preincubation, 1 mM BSO
How it was run: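 FRDA patient primary fibroblasts were pretreated with compounds for 24 h, then exposed to 1 mM BSO (final) until toxicity appeared in BSO-only controls (typically 16–48 h). Viability was read by calcein AM (1.2 μM)/ethidium homodimer (4 μM) staining, 60 min RT, fluorescence 485/525 nm.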

mdx mouse = test: Longterm treatment of mdx mice (model for Duchenne Muscular Dystrophy); type: in vivo; conditions: 10 mg/kg/day i.p., 4 weeks, vs vehicle mdx mice
Description: The mdx mouse is a well established animal model for Duchenne Muscular Dystrophy (Bulfield G., Siller W. G., Wight P. A., Moore K. J., X chromosome-linked muscular dystrophy (mdx) in the mouse, Proc. Natl. Acad. Sci. USA., 1984, 81(4), 1189-1192). Selected compounds were tested in longterm treatments of mdx mice, according to the procedures described below.
Mouse strains: C57BL/10scsn and C57BL/10scsn mdx mouse strains were purchased at The Jackson Laboratory (ME, USA) and bred inhouse. Mouse males were sacrificed at the age of 3 or 7 weeks by CO2 asphyxiation.
Treatment: Compounds were dissolved in 50% PEG, 50% saline solution and applied by i.p. injection.
Histology: Tibialis anterior (TA) and diaphragm (Dia) muscles were collected and mounted on cork supports using gum tragacanth (Sigma-Aldrich, Germany). The samples were snap-frozen in melting isopentane and stored at −80° C. 12 μm thick cryosections of the mid-belly region of muscles were prepared. For staining, sections were air dried and fixed with 4% PFA in PBS for 5 minutes, washed 3 times with PBS and incubated over night at 4° C. in PBS containing 2 μg/ml Alexa Fluor™ 488 conjugated wheat-germ agglutinin (WGA-Alexa, Molecular Probes, Eugen, Oreg., USA) to stain membrane-bound and extracellular epitopes and 1 μg/ml 4′,6-diamidino-2-phenylindole (DAPI; Molecular Probes) to stain nuclei.
Image acquisition and analysis: Fluorescence microscopy images of both labels were acquired using a digital camera (ColorView II, Soft Imaging System, Munster, Germany) coupled to a fluorescence microscope (Vanox S, Olympus, Tokyo, Japan). Combination of these two stainings to a composite image, assembling of several images to a complete image of the entire muscle cross-section and further semi-automated analysis was performed using the image analysis program AnalySIS (Soft Imaging System). Image analysis of 1200-2900 muscle fibers in each section was performed in three steps: 1) determination of the muscle fiber boundaries, 2) determination of the muscle fiber size, and 3) determination of the percentage of muscle fibers containing centralized nuclei. Six different geometrical parameters were tested for the determination of the muscle fiber size: (a) the “minimal feret” (the minimum distance of parallel tangents at opposing borders of the muscle fiber), (b) the “area”, (c) the “minimal inner diameter” (the minimum diameter through the center of the muscle fiber), (d) the “minimal diameter” (the minimum diameter of a muscle fiber for angles in the range 0° through 179° with step width 1°, (e) the “minimal outer diameter” (the minimum diameter through the muscle fiber from outer border to outer border), and (f) the “perimeter”. The variance coefficient of the muscle fiber size is defined as follows: variance coefficient=(standard deviation of the muscle fiber size/mean of the muscle fiber size of the section)*1000. For statistical analysis of different variance coefficient values Mann-Whitney U test was used.
Selected Examples of the present invention were active in the mdx mouse model at 10 mg/kg/day, using 3 week old mice and a treatment period of 4 weeks (N=5−10).

Q: What does the source list for `CCNC(=O)C(=O)[C@H](Cc1ccc(Br)cc1)NC(=O)[C@H](CC(C)C)NC(=O)CCCCC1CCSS1` (stereo partly drawn) [Example 64]?
A: IC50 (20S Proteasome): 40 nM; EC50 [1]: 1000 nM; decrease in the variance coefficient of the muscle fiber size (mdx mouse; Dia (diaphragm)): 29%; reduction of percentage of centralized nuclei (mdx mouse; Dia (diaphragm)): 61%; decrease in the variance coefficient of the muscle fiber size (mdx mouse; TA (tibialis anterior)): 43%; reduction of percentage of centralized nuclei (mdx mouse; TA (tibialis anterior)): 28%
